Experimental data taken from PMC12040169 (PLOS Biology, 2025).

Key:
[1] = in vitro; conditions: human, hela cells, % viability
[2] = test system: T1, CTL2-GFP (C. trachomatis L2/434/Bu, GFP-expressing); test: microbe, parasite or virus in culture; design: Intracellular C. trachomatis growth in HeLa cells, bulk GFP fluorescence relative to DMSO; conditions: Chlamydia trachomatis, HeLa, 28.5 h; bulk GFP, mean of 2; read-out: % of control remaining
T1 construct: L2/434/Bu, GFP-expressing
Description: MICs were calculated as described above.

[3] = in vitro; design: Viability of infected HeLa host cells, resazurin conversion, bulk resorufin fluorescence relative to DMSO; conditions: human, hela cells; bulk resorufin, mean of 2
[4] = test system: T2, C. trachomatis L2/434/Bu expressing GFP (CTL2-GFP); test: microbe, parasite or virus in culture; design: C. trachomatis total inclusion area by high-content imaging, normalised to DMSO; conditions: Chlamydia trachomatis, HeLa, 28.5 h; total inclusion area; read-out: % of control remaining
T2 construct: L2/434/Bu GFP intracellular growth in HeLa cells
Procedure, shortened: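 Read-out combines bulk fluorescence and imaging: GFP tracks chlamydial growth, resorufin tracks host cell viability. Plates were then fixed and Hoechst-stained so inclusions and nuclei could be imaged and counted per well.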

| SMILES | viability at 28.5 h, 10 µM [1] [%] | activity at 1 µM [2] [%] | activity at 5 µM [2] [%] | activity at 10 µM [2] [%] | viability at 28.5 h, 1 µM [3] [%] | viability at 28.5 h, 5 µM [3] [%] | viability at 28.5 h, 10 µM [3] [%] | activity at 1 µM [4] [%] | activity at 5 µM [4] [%] | activity at 10 µM [4] [%] |
| --- | --- | --- | --- | --- | --- | --- | --- | --- | --- | --- |
| CC(=O)NC[C@H]1CN(c2ccc3c(c2)CCSC3)C(=O)O1 [CBK018505] | 99 | 142 | 29.2 | 12.6 | 95.5 | 101 | 101 | 129 | 28.5 | 9.34 |
| COC(=O)N1CCc2ccc(N3C[C@H](CNC(C)=O)OC3=O)cc2CC1 [CBK022485] | 79.8 | 136 | 44.2 | 12.6 | 88.3 | 85.8 | 90.5 | 128 | 35.2 | 7.61 |
| CCOc1cc(/C=N/Nc2nnc(C)n2N)ccc1O [CBK027460] | 88.9 | 109 | 57.8 | 26 | 93.3 | 88.7 | 87.4 | 115 | 81 | 31.7 |
| O=C(Nc1ccccc1N1CCCNCC1)c1ccc2ccccc2c1 [CBK038927T] | 97.3 | 94.8 | 1.41 | 8.25 | 115 | 114 | 116 | 84.9 | 7.75 | 1.67 |
| FC(F)(F)CCN1CCC2(CC1)NCCc1c2[nH]c2ccc(Cl)cc12 [CBK039331] | 91 | 123 | 46.8 | 30.2 | 98.2 | 105 | 108 | 56.9 | 20.2 | 7.6 |
| CC(Nc1cc(N2CCN(CCO)CC2)ccc1[N+](=O)[O-])c1ccc(Br)cc1 (stereo not drawn) [CBK041273] | 103 | 139 | 130 | 93.8 | 91.4 | 94.5 | 96.3 | 130 | 81.9 | 47.4 |
| CCc1cc(Br)ccc1S(=O)(=O)NC(CC)COC (stereo not drawn) [CBK045265] | 88.1 | 138 | 114 | 140 | 100 | 99 | 96.5 | 117 | 106 | 97.7 |
| c1ccc(-c2nnc3ccccc3c2N2CCNCC2)cc1 [CBK066888] | 107 | 125 | 82.9 | 27.1 | 114 | 106 | 105 | 97.7 | 46 | 0.17 |
| OC(COc1ccc(Br)cc1)CN1CCCN(c2nc3ccc(Cl)cc3s2)CC1 (stereo not drawn) [CBK074643] | 93.5 | 137 | 114 | 43.8 | 86.1 | 88.1 | 88 | 121 | 82.4 | 11.3 |
| O=C(Nc1ccccc1C(=O)Nc1nnc(C(F)(F)F)s1)c1ccccc1Cl [CBK076900] | 76.9 | 130 | 90.8 | 45.1 | 94.7 | 97 | 84.6 | 113 | 64.7 | 63.4 |
| N#CCCCN1CCC(Oc2cncc(OCc3ccc(Cl)c(Cl)c3)n2)C1 (stereo not drawn) [CBK084436] | 96.1 | 127 | 81.2 | 52.7 | 95.4 | 102 | 99.4 | 118 | 74.4 | 32.6 |
| COc1ccc(N2CCN(C(=O)c3ccc([N+](=O)[O-])o3)CC2)cc1 [CBK091410] | 105 | 106 | 55.2 | 16 | 106 | 110 | 125 | 128 | 64.3 | 20.7 |
| Nc1ncc(-c2ccc(C(=O)N3CCOCC3)cc2)cc1C(=O)NCc1ccc(Cl)c(Cl)c1 [CBK158570] | 109 | 97.9 | 89.9 | 72 | 91.9 | 93.3 | 93.8 | 87.8 | 108 | 65.8 |
| CCc1nnc(NS(=O)(=O)c2ccc(NC(=O)COc3ccc(Cl)cc3Cl)cc2)s1 [CBK200050] | 108 | 112 | 48.5 | 22.1 | 104 | 96.7 | 98.4 | 99.2 | 67 | 37.8 |
| NC(=O)c1[nH]nc(C2OC(CO)C(O)C2O)c1O (stereo not drawn) [CBK201236] | 95.1 | 15.5 | 10.1 | 9.69 | 92.8 | 92.1 | 93.8 | 23.4 | 16 | 13.6 |
| Nc1nc(F)nc2c1ncn2[C@H]1C[C@@H](O)[C@@H](CO)O1 [CBK201337] | 77.6 | 52.9 | 11.5 | 14.4 | 93.5 | 79.2 | 72.6 | 50.4 | 4.65 | 1.29 |
| Nc1ccc(C(=O)Nc2ccc(-c3nc4ccc(NC(=O)c5ccc(N)cc5)cc4[nH]3)cc2)cc1 [CBK261147] | 109 | 149 | 133 | 160 | 88.3 | 93.2 | 103 | 101 | 76.7 | 91.9 |
| C/C(=N\Nc1nnc2c(n1)[nH]c1ccccc12)c1ccccn1 [CBK262054] | 94.5 | 18 | 12.2 | 10.5 | 87.3 | 69.7 | 70.2 | 18.7 | 2.45 | 1.6 |
